These results are taken from patent publication US20260297035A1, “PROTEIN KINASE INHIBITORS AND USES THEREOF” (DELiver Therapeutics, Inc., priority 2023, published 2026).

This data set can be described thus: non-GLP multi-dose toxicity study (dose escalation, daily IP injection). To be noted: mice. In kind it is in vivo, mouse (6-week-old Balb/c females). Here is the method: An initial non-GLP multi-dose toxicity study of Cmpd11 and Cmpd66 was performed, which included a comparison to COM1 and COM3 clinical compounds. […] Body weights were recorded 2× weekly for healthy mice followed by weekly in the recovery phase. Blood draws were taken, retro-orbitally, every other week (for a total of three blood draws per group) to determine the plasma levels of compounds throughout the duration of the study (unless mice were euthanized prior to completion of the 28-day dosing period). […] Any animals showing more than 9% weight loss were weighed every day and animals were euthanized after a weight loss of 15% or more or evidence of high distress (e.g., listless, hunched posture, high grimace score). Also, plasma samples were drawn at euthanasia. Control groups included vehicle only and no manipulation.
A summary of the study is illustrated in FIG. 14. There are six groups with 90 mice total and following is an overview of groups for the study.
The following are criteria for dose escalation and staggering of group starting points. Animals in each group are monitored after the initial dose for 3-4 days, and if there is no observed dose-limiting toxicity (DLT), then a separate cohort of naïve animals are administered the next higher dose level. Note that each cohort of animals receives the same drug and drug dose for the duration of the 28-day dosing period unless euthanasia is required. Animals in the second, dose-escalated group, are then monitored for 3-4 days, and if there is no observed DLT, animals from a fresh cohort are administered the next higher dose level, while continuing with the former cohorts up to 5 dose levels total. Animals in each cohort then are monitored after the third dose for 7 days, and if there is no observed DLT, then animals are administered the next higher doses. If DLT is observed during a monitoring period for any dose level, a subsequent dose is reduced by a level that is intermediate between the highest tolerated level tested and the minimum toxic level tested.

Structures are written as SMILES.

As for `Cc1ccc(Nc2ncc3cccc(-c4ccc(F)cc4OC(C)C)c3n2)cc1NC(=O)c1ccc(C(=O)N(C)C)cc1` [Cmpd11, N1-(5-((8-(4-fluoro-2-isopropoxyphenyl)quinazolin-2-yl)amino)-2-methylphenyl)-N4,N4-dimethylterephthalamide], the “tolerability relative to COM1” value (at doses required to reach the in vitro K562-Luc EC50 plasma levels in vivo, early results) is “more tolerable than COM1”. The tolerability result runs as follows: (daily IP, 1.5 mg/kg, through day 24) “well tolerated”; (daily IP, 4.5 mg/kg, through day 14) “well tolerated”. For the same molecule, for the setting “mouse, in vivo, daily IP, 18 mg/kg (12X EC50), by day 7, read-out: expiration of animals (2 out of 5)”, the mortality at 168 h turned out to be 40%.
